Measured values reported in PMC11468294, “Peptide Amphiphiles as Biodegradable Adjuvants for Efficient Retroviral Gene Delivery” (Advanced Healthcare Materials, 2023).
Entries after “also recorded” stand apart in the source; their conditions may differ. Where a SMILES comes first, the peptide text is derived from it. The star is where a group is joined. Palmitoyl = CCCCCCCCCCCCCCCC(=O)*

Legend:
[1] = test system: HeLa cells; experiment: Cell-PA interaction by confocal laser scanning microscopy; format: cell-based; conditions: peptide 20 µg mL-1 added for 30 min, washed, Proteostat stain
Description: Confocal laser scanning microscopy and degradation study with PA1‐3 and HeLa cells: HeLa cells were seeded one day prior to conducting the assay (40000/well) in an 8‐well IBIDI slide. 4 µL of the preformed peptide fibrils (1 mg mL^−1) were diluted with 4 µL Proteostat (Enzo Life Science, 1 µL stock in 999 µL PBS) and incubated for 10 min and further diluted with medium to receive a final peptide concentration of 20 µg mL^−1. The nucleus of the HeLa cells was stained with Hoechst 33 342 (NucBlue, Thermo Fisher Scientific). The peptide solution was transferred to the HeLa cells and incubated for 30 min at 37°C before washing three times with PBS. The interaction of fibril clusters with cells was monitored after 30 min incubation time on a Stellaris 8 confocal laser scanning microscope (Leica) equipped with a 20x air objective and laser excitation wavelengths of 405 nm (Hoechst) and 561 nm (Proteostat). For the evaluation of aggregate degradation, the samples were further incubated at 37°C for 3 d and analyzed without any additional washing step. The evaluation of aggregate size and number was conducted by analyzing Proteostat stained aggregates via the 3D objects counter function of ImageJ 1.53f51 for 3 individual measurements (area 581.25 µm × 581.25 µm). […] The number of aggregates larger than 10 µm^2 were counted via the 3D objects counter function of ImageJ 1.53f51. The mean number and standard deviations were determined by averaging at least three technical triplicates.
Figure S6 Laser scanning microscopy micrographs of A cells only (control), and Proteostat-stained (red) peptides B EF-
C ([…]), C PA1, D PA2, E PA3, F P1, G P2, H P3 added to HeLa cells (nucleus in blue). The peptides (20 µg mL-
1) were added to cells for 30 min, washed and analyzed. […]

[2] = test system: HIV-1 infection of TZM-bl cells; experiment: HIV-1 infection assay (β-galactosidase luminescence reporter); format: cell-based; conditions: infectivity enhancing if n-fold at 1.3 µM larger than 2
Description: HIV‐1 Infection Assay: The effect of peptide fibrils on HIV‐1 infection was studied via a luminescence assay for β‐galactosidase, which was reported by TZM‐bl cells upon infection. 10000 TZM‐bl cells were seeded in 180 µl supplemented DMEM one day prior infection. The cells were inoculated with 20 µl PNF solution 1:1 (v/v) mixed with virus (1:500 dilution) after an incubation time of 10 min. The HIV‐1 infection assay was conducted in three technical replicates and repeated in three independent experiments unless stated otherwise. The assay was conducted as described before.^[ [20] ^]

[3] = ATR-FT-IR β-sheet content; format: physicochemical; conditions: ATR-IR of lyophilized fibril solutions (1 mg mL-1, PBS); peak integration at 1630 cm-1 in 2nd derivative of amide I region
Description: ATR‐FT‐IR: ATR‐IR spectra acquisition and the calculation of β−sheet content were conducted according to a previous report.^[ [20] ^] Briefly, FT‐IR spectra of solid samples were recorded after lyophilization of fibril solutions using a Bruker Tensor II spectrometer equipped with a diamond crystal as ATR element with a spectral resolution of 2 cm–1, each spectrum was an average of 64 scans. The data was processed with Origin software. β−sheet amount was determined by calculating the integral of the peak at 1630 cm^−1 (β‐sheet) relative to the integral between 1650–1700 cm^−1 (native structure) from the 2nd derivative of the FT‐IR spectra.

[4] = TEM morphology of peptide assemblies; format: physicochemical; conditions: diluted from DMSO stock (10 mg mL-1) to 1 mg mL-1 in PBS, incubated 1 d at rt
Description: (§1) Transmission electron microscopy (TEM) measurements, Thioflavin (ThT), zeta‐potential measurements for fibril characterization, ATR‐IR spectra acquisition and the calculation of β−sheet were prepared and conducted analogous to a previous report.^[ [20], [86] ^] […] Fibrils were defined as distinct, if no visible structures could be identified in fluorescence and brightfield microscopy. […] The derived count rate of the zeta‐potential measurement was used as information on the light scattering intensity and turbidity of the sample as a further indicator for microscopic aggregation.^[ [90] ^]
TEM: 5 µL of fibrils (1 mg mL^−1) were placed on 300 mesh, Formvar layered copper grids. After 10 min incubation time, the grids were staining with 4% uranyl acetate solution for 2.5 min. After
three washing steps with dd H2O excess solvent was removed by filter paper. Measurements
were performed on a Jeol 1400 electron microscope with 120 kV acceleration voltage.

[5] = ThT fluorescence; format: physicochemical; parameters: key: + = ThT active; − = no ThT fluorescence observed; conditions: 1 mg mL-1 in PBS; ThT-active if fluorescence at least twice the control (PBS with 10% DMSO)
Description: ThT‐fluorescence: 20 µL 50 µM of ThT solution in PBS was pipetted in a black 384 well‐plate and 4 µL of the nanofibril solution 1 mg mL^−1 were added. For reference PBS with 10% DMSO (4 µL) instead of fibril solution was added. Subsequently, fluorescence emission was recorded λem = 488 nm upon excitation at λex = 440 nm with 10 nm bandwidth and multiple reads per well (3 × 3) using a Spark 20 M microplate reader (Tecan Group, Ltd). Data processing was performed with Origin software. A peptide fibril was considered as ThT‐active if the fluorescence intensity was at least twice as strong compared to the control (PBS containing 10% DMSO).

[6] = Zeta-potential measurement; format: physicochemical; conditions: fibrils 1 mg mL-1 in PBS, 60 µL diluted in 600 µL 1 mM KCl; triplicates
Description: Zeta‐potential: 60 µL of the peptides (1 mg mL^−1) were diluted in 600 µL, 1 mM KCl solution and placed in a disposable folded capillary cuvette. All zeta‐potential measurements (Zetasizer, Malvern Instruments) were conducted in triplicates for each sample.

[7] = Microscopic aggregation (fluorescence / confocal microscopy, derived count rate); format: physicochemical; conditions: fibrils preformed at 1 mg mL-1 in PBS; ThT or Proteostat stain, widefield or confocal microscopy; derived count rate > 1000 kcps as criterion
Description: as §1
Fluorescence microscopy: 1 µL Fibrils (1 mg mL^−1) were stained with 9 µL, 50 µM ThT. 10 µL of the stained fibrils (0.1 mg mL^−1) were placed on a microscopy glass. Fluorescence microscopy measurements were performed on a Leica DMi8 microscope with 10x air objective and equipped with a Leica MC170 HD camera with a filter setting λem = 527/30 nm upon excitation at λex = 480/40 nm) and processed with the Leica LASX software.
7 Effects of PA modifications on properties and activity
To investigate the effects of modification in the PA sequence, we created various peptide amphiphiles derived from PA1 by varying the (I) hydrophobic moiety, (II) the linkage chemistry and (III) the peptide sequence (Figure S12, SI chapter 7.1 – 7.3). The color code for sequence representation is yellow for the hydrophobic moiety, blue for cationic amino acids, red for non-polar amino acids, purple for polar uncharged amino acids, and green for anionic amino acids. To be concise, only the summarized information will be discussed, all original data for the peptides are summarized in the (Figure S26 - […]
Figure S12 Summarized overview of peptide amphiphile library in which systematic variations the original sequence […]
chemistry and (III) the peptide sequence on infectivity enhancement and degradability (see SI chapter 7.1 – 7.3).
In the following section a compound is considered infectivity enhancing if n-fold infectivity at 1.3 µM is larger than 2. A compound is considered to form µm-sized aggregates if visible particles were observed in widefield microscopy (brightfield or ThT-staining filter, objective 10x) or confocal […]
than 1000 kcps in Zeta-Potential measurements.
For the degradability only the PAs which could be stained with Proteostat (Figure S26) and were visible in microscopy (Figure S15, Figure S18, Figure S21, and Figure S22) were studied in detail. To determine […]
whether a PA is degraded or not, Proteostat stained PAs which are added to Hela cells (2 µg peptide added to 20.000 cells) and studied via confocal laser scanning microscopy. […]
In the following, we will distinguish between three aggregation types for fibrillar structures: Fibrils which were not aggregating (below resolution limit of the microscope, approx. 650 nm), moderately aggregating (< 50 µm2) and aggregating to large particles (> 50 µm 2).
7.1 Effects of hydrophobic moiety exchange on properties and activity
To investigate the effects of varying hydrophobic moieties on assembly, aggregation and activity , we

Row | Structure (SMILES) | association with cellular membranes [1] | infectivity enhancement of HIV-1 (in words) [2] | β-sheet content [3] [%] | morphology of peptide assemblies / fibril formation (TEM) [4] | ThT fluorescence [5] | Zeta-Potential [6] [mV] | formation of µm-sized aggregates (in words) [7]
1 | CCCCCCCCCCCCCCCC(=O)N[C@H](C(=O)N[C@H](C(=O)N[C@H](C(=O)N[C@@H](C)C(=O)N[C@@H](C)C(=O)N[C@@H](C)C(=O)N[C@@H](CCC(=O)O)C(=O)N[C@@H](CCC(=O)O)C(=O)N[C@@H](CCC(=O)O)C(N)=O)C(C)C)C(C)C)C(C)C [PA3] (Palmitoyl-VVVAAAEEE-NH2) | does not associate with cells | Inactive | 61 | distinct fibrils | + | −29.8 ± 2.7 | did not bundle or adopt µm‐sized aggregates in PBS
2 | CCCCCCCCCCCCCCCC(=O)N[C@@H](C)C(=O)NCC(=O)NCC(=O)N[C@@H](CCCNC(=N)N)C(=O)N[C@H](C(=O)N[C@@H](CCCCN)C(N)=O)C(C)C [C16-AGGRVK-NH2] (Palmitoyl-AGGRVK-NH2) | did not associate with cells | – | – | – | – | – | not forming µm-sized aggregates and forming too few/less aggregates, respectively; also recorded: no aggregation
